How the values were obtained:
[1] = test system: a variety of test species; assay: Pre-emergence herbicidal activity (Example 8a, Table 2); format: in vivo; set-up: key: 0 = no damage to plant, 5 = total damage to plant; conditions: application pre-emergence, rate 1000 g/ha, evaluated after 13 days
Method in brief: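 Pre-emergence spray, one day post-sowing; vehicle acetone/water (50:50) + 0.5% Tween 20, aqueous dilution. Glasshouse 24/16 °C, 14 h light, 65% RH, watering twice daily. Score at 13 d on 0–5 scale, 5 = total damage.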

[2] = test system: a variety of test species; assay: Post-emergence herbicidal activity (Example 8b, Table 3); format: in vivo; conditions: application post-emergence, rate 1000 g/ha, evaluated after 13 days, scale 0-5; for Herbicidal damage score, ABUTH: Abutilon theophrasti; for Herbicidal damage score, ALOMY: Alopecurus myosuroides; for Herbicidal damage score, AMARE: Amaranthus retroflexus; for Herbicidal damage score, ECHCG: Echinochloa crus-galli; for Herbicidal damage score, SETFA: Setaria faberi; for Herbicidal damage score, ZEAMX: Zea mays
Method in brief: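 Damage was rated 0-5 (5 = total) 13 days after a post-emergence spray of acetone/water (50:50) plus 0.5% Tween 20 formulation. Plants were sprayed at 8 days' growth and kept at 24/16° C, 14 h light, 65% humidity, watered twice daily.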

Compound | Pre-emergence herbicidal activity, damage score ABUTH [1] | Pre-emergence herbicidal activity, damage score ALOMY [1] | Pre-emergence herbicidal activity, damage score AMARE [1] | Pre-emergence herbicidal activity, damage score ECHCG [1] | Pre-emergence herbicidal activity, damage score SETFA [1] | Pre-emergence herbicidal activity, damage score ZEAMX [1] | Herbicidal damage score, ABUTH [2] | Herbicidal damage score, ALOMY [2] | Herbicidal damage score, AMARE [2] | Herbicidal damage score, ECHCG [2] | Herbicidal damage score, SETFA [2] | Herbicidal damage score, ZEAMX [2]
COC1=C(OC)C(O)N(c2cc3n(n2)CCC3(C)C)C1=O (stereo not drawn) [Compound W1] | 5 | 4 | 5 | 4 | 5 | 3 | 5 | 5 | 5 | 5 | 5 | 5
COC1=C(OC)C(O)N(c2cc3n(n2)CCCC3(C)C)C1=O (stereo not drawn) [Compound W2] | 5 | 4 | 5 | 4 | 5 | 4 | 5 | 5 | 5 | 5 | 5 | 5

— patent US9605004B2, “Chemical compounds” (SYNGENTA LIMITED, priority 2013, dated 2017)
